For this assay, the system named is MDA-MB-231. The format is cell-based, human. The note with it: anisomycin stimulation.

`Cc1ccc(-n2nc(C(C)(C)C)cc2NC(=O)Nc2ccc(OCCN3CCOCC3)c3ccccc23)cc1` [BIRB-796]: the “level of phosphorylated/activated p38” value is “reduces in the overall level of phosphorylated p38” and the “phosphorylation status of SAPK/JNK” value is “reduces the phosphorylation of JNK”.

Values taken from PMC7480010 (Journal of biomolecular screening, 2015).
